Paper PMC6571972 (Pharmaceutics, 2019)
Read-outs that look alike come from different tables or passages of the source.

Assays:
[1] = test system: AtT20/D16v-F2 murine pituitary tumor cells; assay: in vitro cytotoxicity, MTT assay; format: cell-based
Procedure: In vitro cytotoxicity: To evaluate the cytotoxicity of conjugates and metabolites, AtT20/D16v-F2 murine pituitary tumor cells obtained from American Type Culture Collection (ATCC, Bethesda, MD, USA) were used. Cell viability was determined using the MTT (3-(4,5-dimethyl thiaz ol-2-yl)-2,5-diphenyltetrazolium bromide) assay. Briefly, cells in DMEM supplemented with 10% FBS, 1% L-glutamine, and 1% penicillin/streptomycin were seeded in 96-well culture plates (3000 cells/well) and incubated overnight in a humidified, 37 °C, 5% CO2 atmosphere to allow for adherence. The following day, cells were treated with serial dilutions of each compound starting at 100 nM for free drugs and 1000 nM for each one of the conjugates and incubated as described for 2 h. 0.1% DMSO served as a control. After incubation, the cells were washed once, media replaced, and incubation continued for further 70 h. At the end of treatment, 5 µL of MTT solution (5 mg/mL in deionized H2O, Sigma #M5655) was added to each well and the cells were incubated for another 2 h. Finally, 100 µL of lysis buffer (10% SDS, 10 mM HCl) was added, and the cells were placed in the incubator overnight for the formazan crystal solubilization. Absorbance at 540 nm was measured using a FLUOstar Omega (BMG Labtech) microplate reader and the growth inhibition ratio was calculated. Blank controls detecting cell-free media absorbance were performed in parallel. Three experimental replicates were used. The half-maximal inhibitory concentration values (IC50) were obtained from viability curves while using GraphPad Prism 6. Cell viability was expressed as percentage relative to the respective control conditions.

[2] = mouse; cited from earlier work
[3] = cited from earlier work
[4] = plasma stability in human plasma; format: in vitro ADME; conditions: 37 °C, read-out: Plasma Stability (t1/2 in h) Human (converted)
Procedure: (§1) Plasma stability: The sample preparation and the metabolic analysis of the conjugates was carried out similarly to the previously described method. Shortly, in a 96-well plate each conjugate and the control compound, procaine (3 mM, stock solution in DMSO) in three replicates were diluted with 250 μL of plasma to give a 3 µM concentration and then incubated at 37 °C. At each sample collecting time point, an aliquot of 30 µL was transferred into a 96-deep well plate and the reaction was stopped with 120 µL of acetonitrile containing 0.1% formic acid and 0.4 µg/mL of warfarin as the internal standard (IS). This mixture was centrifuged at 1100 ×g for 30 min at 4 °C and 50 µL of supernatant was transferred into a clean 96 deep-well plate and diluted with 50 µL of 0.1% formic acid in water. The samples were stored at -80 °C until analyses. Stability was determined based on LC-HRMS analysis of the disappearance of the compound as a function of incubation time, while using area ratio (analyte peak area vs internal standard peak area). The elimination constant k is calculated by plotting mean disappearance values on a semi-logarithmic scale and fitting with a best fit linear regression. The half-life (t1/2) expressed in hours is derived using the equation: t1/2 = ln2/(−k).

human SSTR2 = biological target: T1, human SSTR2 (Homo sapiens, UniProt P30874); assay: radioligand binding competition assay with SSTR2 membrane extract; conditions: competition with 3-[125I] iodotyrosyl11 Somatostatin 14, CHO-K1-SST2 membranes; for IC50: read-out: Binding Affinity (IC50 in nM)
T1 construct: membrane extract (recombinant CHO-K1-SST2 (NP_001041.1), 25 µL, 0.2 µg); expressed in transfected cells; host or cells: CHO-K1
T1 sequence (P30874 whole entry): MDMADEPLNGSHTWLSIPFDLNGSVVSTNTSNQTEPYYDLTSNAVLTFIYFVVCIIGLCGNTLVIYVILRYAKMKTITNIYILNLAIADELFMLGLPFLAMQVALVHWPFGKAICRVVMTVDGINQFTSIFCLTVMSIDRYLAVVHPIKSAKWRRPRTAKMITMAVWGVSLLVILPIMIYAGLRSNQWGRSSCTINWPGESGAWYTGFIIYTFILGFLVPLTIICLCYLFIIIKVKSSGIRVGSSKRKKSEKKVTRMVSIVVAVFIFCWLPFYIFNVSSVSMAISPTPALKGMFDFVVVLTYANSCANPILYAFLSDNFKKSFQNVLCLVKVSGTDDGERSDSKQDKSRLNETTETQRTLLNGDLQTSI
Procedure: The dilution of test compound (50 µL, maximum final DMSO concentration 3%), radioligand 3-[125I] iodotyrosyl11 Somatostatin 14 (Perkin Elmer, NEX389, 25 µL, 0.4 nM), and membrane extract (recombinant CHO-K1-SST2 (NP_001041.1), 25 µL, 0.2 µg) were successively added to a 96-well plate and then incubated at 25 °C for 60 min. It was filtered over GF/B Unifilter plate (Perkin Elmer, 6005177, pre-soaked in 0.5% PEI for 2 h at room temperature) with a Filtermate Harvester (Perkin Elmer). After rinsing the filters six times with 0.5 mL of ice-cold washing buffer (25 mM HEPES pH 7.4, 5 mM MgCl2, 1 mM CaCl2), 50 µL of Microscint 20 (Packard) was added to the filters and the samples were incubated 15 min on an orbital shaker and then counted with a TopCount™ for 1 min/well. The binding affinity was determined in duplicates by plotting the dose-response data to a nonlinear regression with variable slope.

[5] = plasma stability in murine plasma; format: in vitro ADME; conditions: mouse, 37 °C, read-out: Plasma Stability (t1/2 in h) Murine (converted)
Procedure: as §1

AtT20 tumors = assay: in vivo antitumor efficacy; parameters: species or system BALB/c nude mice; conditions: 5 mg/kg i.v. once weekly for three weeks, AtT20 tumor-bearing mice
Procedure: (§2) Figure S1. Confocal microscopy images from conjugate 10 in SSTR2 positive cell line […]
(§3) Animal experiments were approved by the Committee for Animal Experiments of the […]
(§4) For in vivo tumor targeting and antitumor efficacy experiments, three million AtT20/D16v-F2 murine pituitary tumor cells in 100 µL PBS/Matrigel (v/v) were xenografted in the right flank of four-weeks-old female BALB/c nude mice (BALB/cAnNRj-Foxn1nu/nu, Janvier Labs). The experiments started around 15 days after implantation, when the animals started to show physical signs of the hormone releasing […]
In vivo antitumor efficacy
Animals bearing AtT20 tumors were randomized in three treatment groups (n=9) and injected intravenously with 5 mg/kg of conjugate 8 in 2% DMSO in water or a mix of […]
Treatment was given once a week for a total of three weeks. Vehicle treatment was used as control. Mice were weighed, and the tumor sizes were monitored with an electronic caliper. Tumor volume was calculated using the ellipsoid formula ν = π/6ꞏxꞏyꞏz.
Figure S2. In vivo antitumor efficacy of conjugate 8 compared to vehicle and unconjugated mix of cryptophycin and octreotide (left), and body weight quantification during treatment (right). […]

[6] = biological target: T2, cathepsin B from bovine spleen (Bos taurus, UniProt P07688); assay: cathepsin B degradation; format: in vitro ADME; conditions: cathepsin B 1 U/mL
T2 construct: cathepsin B from bovine spleen (Sigma Aldrich, C6286); purchased Sigma Aldrich C6286; host or cells: bovine spleen (tissue-derived)
Procedure: (§5) Cathepsin B degradation: An aqueous solution of L-cysteine (0.28 M) was diluted 1:10 in acetate buffer/EDTA 1 mM pH 5.5, to achieve a working solution of 28 mM of L-cysteine. This solution was used to dilute cathepsin B from bovine spleen (Sigma Aldrich, C6286) to 1.11 U/mL. The cathepsin B solution was pre-incubated at 37 °C for 15 min and then split into 45 µL aliquots in Eppendorf tubes, with two replicates for each incubation time. 5 µL of substrate solution (50 µM in MeOH/H2O (1:1)) were added to each tube for a final concentration of 5 µM. Tubes corresponding to t0 contained 100 µL of 1% HCOOH in MeOH and they were put in an ice bath to inhibit the reaction. All of the other tubes were incubated at 37 °C in an oscillating thermostatic bath and the reaction was stopped at the following incubation times: 0.25, 0.5, 1, 2, 4, and 6 h, as described for the t0 samples. The samples were then centrifuged for 10 min at 14000 rpm at 4 °C and filtered through regenerated cellulose syringe filters prior to injection in the HPLC-ESI-MS system. Control solutions containing 5 µM substrate in acetate buffer pH 5.5/EDTA 1 mM/L-cysteine 28 mM were also prepared and then incubated up to 6 h at 37 °C in the absence of the enzyme to check the substrate stability under incubation conditions. Substrates and their possible cleavage products (Gly-Pro-Cry-55gly, Cry-55gly, and Cry-55) were quantified via calibration curves that were prepared in acetate buffer/EDTA/L-cysteine in the range 25–5000 nM.

cathepsin B degradation = format: in vitro ADME, bovine; conditions: acetate buffer/EDTA/L-cysteine without enzyme; acetate buffer pH 5.5/EDTA/L-cysteine, 37 °C, after 6 h; read-out: compound remaining in buffer in the absence of enzyme
Procedure: as §5

[7] = pharmacokinetics after i.v. injection; format: in vivo; conditions: 2.5 mg/kg i.v., heterozygous NCR mice
Procedure: Pharmacokinetics: To evaluate the pharmacokinetic profile of conjugate 8 and its fluorescence-labeled analogue 10, four-weeks-old female heterozygous NCR mice from Charles River were used. Animals were intravenously injected with 2.5 mg/kg (in 2% DMSO in water, dosed at 0.5 mg/mL) of each conjugate. Terminal blood samples were collected via cardiac puncture from animals under deep anesthesia at different time points (5, 15, 30, 60, 180, and 360 min, n = 3). The samples were rapidly transferred to lithium heparin-coated tubes, kept on ice, and subsequently centrifuged at 2000 ×g, 4 °C for 10 min. After centrifugation, plasma was collected and the samples were kept at -20 °C until analyses.

in vivo = conditions: mouse
Description: Dose escalation experiments determined the maximum tolerated dose of the conjugate.

AtT20 cells = assay: live cell confocal microscopy, conjugate internalization in AtT20 cells; format: cell-based, murine
A549 cells = assay: live cell confocal microscopy, conjugate internalization in A549 cells; format: cell-based, human; conditions: A549 cells with low levels of SSTR2, 1 µM
AtT20 xenografts = assay: in vivo tumor targeting, whole body imaging; parameters: species or system nude mice; conditions: 1 mg/kg i.v.
Procedure: Tumor targeting studies: The fluorescence-labeled conjugate 10 (1 mg/kg in 2% DMSO in water) was intravenously injected in nude mice bearing AtT20 tumors. At each time point, whole body imaging was acquired using the Lago optical imaging system (Spectral Instruments Imaging), while mice were under isoflurane anesthesia (2.5%/20% O2).
as §2, §3, §4

[8] = 2 h treatment, wash, further 70 h, MTT, read-out: Cytotoxicity in AtT20 (IC50 in nM)

COc1ccc(C[C@H]2NC(=O)/C=C/C[C@@H]([C@H](C)[C@@H](OC(=O)CNC(=O)[C@@H]3CCCN3C(=O)CN)[C@@H](Cl)c3ccccc3)OC(=O)[C@H](CC(C)C)OC(=O)C(C)(C)CNC2=O)cc1Cl [Gly-Pro-Cry-55gly]
IC50 ([1]; Mus musculus, AtT20, 2 h treatment, wash, further 70 h, MTT, read-out: Cytotoxicity in AtT20 (IC50 in nM)): 6.05 nM

COc1ccc(C[C@H]2NC(=O)/C=C/C[C@@H]([C@H](C)[C@@H](OC(=O)CN)[C@@H](Cl)c3ccccc3)OC(=O)[C@H](CC(C)C)OC(=O)C(C)(C)CNC2=O)cc1Cl [compound 3, cryptophycin-55 glycinate]
Plasma Stability (t1/2 in h) Murine [2]: > 24 [48] h
IC50 ([1]; Mus musculus, AtT20, read-out: Cytotoxicity in AtT20 (IC50 in nM)): 3.53 nM
Plasma Stability (t1/2 in h) Human [3]: > 24 [48] h

COc1ccc(C[C@H]2NC(=O)/C=C/C[C@@H]([C@H](C)[C@@H](OC(=O)CNC(=O)CNC(=O)[C@@H]3CCCN3C(=O)[C@H](CCCNC(N)=O)NC(=O)[C@@H](NC(=O)CCOCCOCCOCCOCCn3cc(CCC(=O)N[C@H](Cc4ccccc4)C(=O)N[C@H]4CSSC[C@@H](C(=O)N[C@H](CO)[C@@H](C)O)NC(=O)[C@H]([C@@H](C)O)NC(=O)[C@H](CCCCN)NC(=O)[C@@H](Cc5c[nH]c6ccccc56)NC(=O)[C@H](Cc5ccccc5)NC4=O)nn3)C(C)C)[C@@H](Cl)c3ccccc3)OC(=O)[C@H](CC(C)C)OC(=O)C(C)(C)CNC2=O)cc1Cl [compound 7]
half-life at 3 µM [4]: 23 h
IC50 (human SSTR2): 0.6 nM
half-life at 3 µM [5]: 0.5 h
IC50 [1, 8]: 51.2 nM

COc1ccc(C[C@H]2NC(=O)/C=C/C[C@@H]([C@H](C)[C@@H](OC(=O)CNC(=O)[C@@H]3CCCN3C(=O)CNC(=O)[C@H](CCCNC(N)=O)NC(=O)[C@@H](NC(=O)CCOCCOCCOCCOCCn3cc(CCC(=O)N[C@H](Cc4ccccc4)C(=O)N[C@H]4CSSC[C@@H](C(=O)N[C@H](CO)[C@@H](C)O)NC(=O)[C@H]([C@@H](C)O)NC(=O)[C@H](CCCCN)NC(=O)[C@@H](Cc5c[nH]c6ccccc56)NC(=O)[C@H](Cc5ccccc5)NC4=O)nn3)C(C)C)[C@@H](Cl)c3ccccc3)OC(=O)[C@H](CC(C)C)OC(=O)C(C)(C)CNC2=O)cc1Cl [compound 8]
antitumor efficacy (tumor volume) (AtT20 tumors): no therapeutic benefit
half-life at 3 µM [4]: 24 h
cleavage by cathepsin B ([6]; 5 µM compound, 37 °C): readily cleaved
release of cryptophycin-55 glycinate by self-immolation after cleavage ([6]; up to 6 h): no cryptophycin-55 glycinate (3) was found
remaining at 6 h, 5 µM (cathepsin B degradation): 90%
area under the curve (AUC), comparison of 8 with 10 [7]: higher
half-life ([7]; female, mouse, plasma, iv, read-out: circulatory half-life): 1.73 h
IC50 (human SSTR2): 1.3 nM
MTD (in vivo): ≥ 10 mg/kg
half-life at 3 µM [5]: > 24 h
IC50 [1, 8]: 8.37 nM

CC(C)[C@H](NC(=O)CCOCCOCCOCCOCCn1cc(CCC(=O)N[C@H](Cc2ccccc2)C(=O)N[C@H]2CSSC[C@@H](C(=O)N[C@H](CO)[C@@H](C)O)NC(=O)[C@H]([C@@H](C)O)NC(=O)[C@H](CCCCN)NC(=O)[C@@H](Cc3c[nH]c4ccccc34)NC(=O)[C@H](Cc3ccccc3)NC2=O)nn1)C(=O)N[C@@H](CCCNC(N)=O)C(=O)NCC(=O)N1CCC[C@H]1C(=O)NCCCCCCNC(=O)CCCCC[N+]1=C(/C=C/C=C/C=C2N(C)c3ccc4ccccc4c3C2(C)C)C(C)(C)c2c1ccc1ccccc21 [compound 10]
Binding Affinity (IC50 in nM) (human SSTR2): low nanomolar IC50
internalization of the conjugate with excess free ligand (AtT20 cells; AtT20 cells, 100-fold excess of free octreotide): could be efficiently competed
internalization of the conjugate (AtT20 cells; SSTR2 expressing AtT20 cells, 1 µM, after 10 min): effective internalization
internalization of the conjugate (A549 cells): no internalization was observed
accumulation in the tumor (AtT20 xenografts; AtT20 xenografts): preferential accumulation
duration of detection in tumor (AtT20 xenografts; tumors around 50 mm^3): up to seven
